From patent US9795681B2, “Tamper resistant dosage form comprising an adsorbent and an adverse agent” (Purdue Pharma L.P., priority 2004, dated 2017)
Where a name gives a salt, the structure may show the parent alone.

Columns and labels:
[1] = administered orally; cited from earlier work
[2] = Dynamic desorption of the Charcoal/Naltrexone by washing with 0.1N HCl; assay type: physicochemical; conditions: 1 L aliquots of 0.1N HCl, 25° C.
Method: IN HCI. The concentration of naltrexone hydrochloride in the wash filtrates was measured using HPLC as described above.

[3] = Adsorption of naltrexone hydrochloride onto activated charcoal from 0.1N HCl, HPLC of liquid phase; assay type: physicochemical; conditions: 37° C.; for Naltrexone adsorbed from solution / Naltrexone adsorbed onto the activated charcoal / Naltrexone content in fluid / Naltrexone content in fluid, HPLC area %: 0.1N aqueous HCl
Method: Example 1 describes a non-limiting method for making an adsorbent/adverse agent. The adsorbent used was DARCO activated charcoal obtained from EM Science, an affiliate of Merck KGaA of Darmstadt, Germany. The DARCO activated charcoal used was 20 to 40 mesh black granular charcoal which passed the USP absorptive power test (see The United States Pharmacopeia, 26:404 (2003)) for activated charcoal.
Adsorption of naltrexone: The activated charcoal (5.02 g) was added to a solution of naltrexone hydrochloride (504.26 mg) (obtained from Mallinkrodt, St. Louis, Mo.) in 0.1N HCI (900 mL). The resultant mixture was stirred at 100 rpm for 120 h at 37° C., and the adsorption (or uptake) of naltrexone hydrochloride into the activated charcoal was monitored by measuring the decrease in concentration of the naltrexone hydrochloride in the liquid phase using high performance liquid chromatography (HPLC). The data was used to calculate the amount of naltrexone adsorbed onto the activated charcoal, e.g., after 2 h, as follows: […]

C[C@H]1[C@H]2Cc3ccc(O)cc3[C@]1(C)CCN2CC1CC1 [cyclazocine]
duration of action [1]: ~24 h

O=C1CC[C@@]2(O)[C@H]3Cc4ccc(O)c5c4[C@@]2(CCN3CC2CC2)[C@H]1O5 [naltrexone hydrochloride]
wash steps during which the majority of the desorption of naltrexone hydrochloride occurred [2]: ≤ 18 wash steps
Naltrexone adsorbed from solution ([3]; time 0 min): 0.00%
Naltrexone adsorbed onto the activated charcoal ([3]; time 0 min): 0.00 mg
Naltrexone content in fluid ([3]; time 0 min): 504.26 mg
Naltrexone content in fluid, HPLC area % ([3]; time 0 min): 4.836 HPLC area %
Naltrexone adsorbed from solution ([3]; time 10 min): 23.34%
Naltrexone adsorbed onto the activated charcoal ([3]; time 10 min): 117.69 mg
Naltrexone content in fluid ([3]; time 10 min): 386.57 mg
Naltrexone content in fluid, HPLC area % ([3]; time 10 min): 3.707 HPLC area %
Naltrexone adsorbed from solution ([3]; time 20 min): 32.01%
Naltrexone adsorbed onto the activated charcoal ([3]; time 20 min): 161.39 mg
Naltrexone content in fluid ([3]; time 20 min): 342.87 mg
Naltrexone content in fluid, HPLC area % ([3]; time 20 min): 3.288 HPLC area %
Naltrexone adsorbed from solution ([3]; time 30 min): 37.62%
Naltrexone adsorbed onto the activated charcoal ([3]; time 30 min): 189.69 mg
Naltrexone content in fluid ([3]; time 30 min): 314.57 mg
Naltrexone content in fluid, HPLC area % ([3]; time 30 min): 3.017 HPLC area %
Naltrexone adsorbed from solution ([3]; time 40 min): 41.36%
Naltrexone adsorbed onto the activated charcoal ([3]; time 40 min): 208.55 mg
Naltrexone content in fluid ([3]; time 40 min): 295.71 mg
Naltrexone content in fluid, HPLC area % ([3]; time 40 min): 2.836 HPLC area %
Naltrexone adsorbed from solution ([3]; time 50 min): 45.37%
Naltrexone adsorbed onto the activated charcoal ([3]; time 50 min): 228.81 mg
Naltrexone content in fluid ([3]; time 50 min): 275.45 mg
Naltrexone content in fluid, HPLC area % ([3]; time 50 min): 2.642 HPLC area %
Naltrexone adsorbed from solution ([3]; time 60 min): 47.75%
Naltrexone adsorbed onto the activated charcoal ([3]; time 60 min): 240.76 mg
Naltrexone content in fluid ([3]; time 60 min): 263.50 mg
Naltrexone content in fluid, HPLC area % ([3]; time 60 min): 2.527 HPLC area %
Naltrexone adsorbed from solution ([3]; time 70 min): 49.10%
Naltrexone adsorbed onto the activated charcoal ([3]; time 70 min): 247.60 mg
Naltrexone content in fluid ([3]; time 70 min): 256.66 mg
Naltrexone content in fluid, HPLC area % ([3]; time 70 min): 2.461 HPLC area %
Naltrexone adsorbed from solution ([3]; time 80 min): 50.76%
Naltrexone adsorbed onto the activated charcoal ([3]; time 80 min): 255.97 mg
Naltrexone content in fluid ([3]; time 80 min): 248.29 mg
Naltrexone content in fluid, HPLC area % ([3]; time 80 min): 2.381 HPLC area %
Naltrexone adsorbed from solution ([3]; time 90 min): 52.98%
Naltrexone adsorbed onto the activated charcoal ([3]; time 90 min): 267.16 mg
Naltrexone content in fluid ([3]; time 90 min): 237.10 mg
Naltrexone content in fluid, HPLC area % ([3]; time 90 min): 2.274 HPLC area %
Naltrexone adsorbed from solution ([3]; time 100 min): 54.38%
Naltrexone adsorbed onto the activated charcoal ([3]; time 100 min): 274.20 mg
Naltrexone content in fluid ([3]; time 100 min): 230.06 mg
Naltrexone content in fluid, HPLC area % ([3]; time 100 min): 2.206 HPLC area %
Naltrexone adsorbed from solution ([3]; time 120 min): 55.36%
Naltrexone adsorbed onto the activated charcoal ([3]; time 120 min): 279.16 mg
Naltrexone content in fluid ([3]; time 120 min): 225.10 mg
Naltrexone content in fluid, HPLC area % ([3]; time 120 min): 2.159 HPLC area %
time within which substantially all of the naltrexone adsorption was completed ([3]; onto activated charcoal, 0.1N HCl): ≤ 1.5 h

O=C1CC[C@@]2(O)[C@H]3Cc4ccc(O)c5c4[C@@]2(CCN3CC2CC2)[C@H]1O5 [naltrexone]
duration of action [1]: ~24 h
